Series [1] is described as follows: Microsomal stability in human liver microsomes. The series is classed as in vitro ADME. Particulars: pH 7.4, 1 µM. Here is the method: (§1) Chemical stability in HCl Buffer, PBS buffer and culture medium (EMEM) was evaluated by LC-MS dissolving compound 1 at 10 μM (final concertation) in cited buffers and injecting aliquots removed from incubations at different time points. Microsomal stability was evaluated employing 50 mM potassium phosphate buffer (pH 7.4) containing 0.15 mg of Human liver microsomes (Sigma-Aldrich, St. Louis, MO, United States) 5 mM MgCl2, 1 mM NADPH, 5 mM glucose 6-phosphate, 0.4 U·mL^−1 glucose 6-phosphate dehydrogenase. Compounds were tested at 1 µM final concentration. Aliquots, removed at different time points, were diluted with ice-cold acetonitrile and analyzed by LC-MS.

The nature of series [2]: Stability in cryopreserved pooled human hepatocytes. The series is classed as in vitro ADME. The following applies: cryopreserved pooled human hepatocytes (HEP10), read-out: t1/2 in cryopreserved hepatocytes. Here is the method: Cryopreserved HEP10 Pooled Human Hepatocytes were thawed in 37°C water bath for 2 min and then transferred into CHRM® Medium. After centrifugation at room temperature cells were resuspended in pre-warmed Incubation Medium and diluted to correct seeding density (5 × 10^5 cells/mL).

Series [3] concerns 3T3-L1 cells. Briefly: 3T3-L1 preadipocyte differentiation, adipogenic marker gene expression (qRT-PCR). The format is cell-based, murine. Particulars: differentiation medium (DIM), 7 days, 10 µM. Here is the method:
The 3T3-L1 cells were cultured in Dulbecco’s modified Eagle’s medium (DMEM; Euroclone), supplemented with 10% fetal bovine serum, 1% l-glutamine, 100 U/mL penicillin, and 100 μg/mL streptomycin, at 37 °C. Preadipocytes of 3T3-L1 cells were plated at 1.7 × 10^6 cells in T75 flasks, and grown to confluence. Two days after reaching confluence (day 0), the cells were stimulated with differentiation medium (DIM), either alone (DMEM, 10% FBS, 500 μM 3-isobutyl-1-methylxanthine, 1 μM dexamethasone, […]), or in combination with BAR502 and clofibrate at the concentration of 5 µM or with compound 1 (10 µM). On day 3, the DIM was replaced by insulin medium (DMEM, 10% fetal bovine serum, […]) alone or with the compounds. On day 7 cells were recovered.
Total mRNA extraction from U937 and 3T3.L1 was performed using Tri-Reagent (Zymo Research) and Direct-zol™ RNA MiniPrep w/Zymo-Spin™ IIC Columns (Zymo Research, Irvine, CA). […] The relative mRNA expression was calculated accordingly to the ΔCt method. […]
In general terms: Quantitative PCR measures a nucleic acid by following its amplification.

The nature of series [4]: In cell permeation and metabolism in HepG2 cells (LC-MSMS). The series is classed as in vitro ADME, human. The following applies: 0–480 min. On the procedure:
HepG2 cells were treated with compound 1, BAR502 or clofibrate. At different time points (0–480 min) culture mediums and cells pellets were collected, extracted by adding ice-cold acetonitrile and analyzed by LC-MSMS.

A short description of series [5]: Chemical stability in HCl buffer, PBS buffer and culture medium by LC-MS. The format is physicochemical. The following applies: 10 μM. Here is the method: as §1
The target of series [6] is T1, PPARα (Homo sapiens, UniProt Q07869).
T1 construct: 20 nM PPARα LBD GST fused (Thermo Scientific); purchased Thermo Scientific
T1 sequence (Q07869 239-466 limits assumed): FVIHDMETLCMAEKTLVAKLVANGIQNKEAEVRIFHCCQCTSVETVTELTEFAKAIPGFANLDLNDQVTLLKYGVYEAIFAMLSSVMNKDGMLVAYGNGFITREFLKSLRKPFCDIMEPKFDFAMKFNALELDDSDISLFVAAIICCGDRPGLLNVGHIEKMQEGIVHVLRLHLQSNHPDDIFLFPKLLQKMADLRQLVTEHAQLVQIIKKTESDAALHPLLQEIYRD
The experiment in a line: AlphaScreen coactivator (SRC-1) recruitment assay on PPARα. The series is classed as biochemical. The following applies: AlphaScreen SRC-1 recruitment; compounds at 50 µM (footnote); fenofibrate = 100%. Here is the method: Compounds’ ability to mediate cofactor recruitment was evaluated by employing AlphaScreen GST Detection Kit (PerkinElmer). Particularly, FXR agonism was evaluated employing 10 nM FXR-LBD GST-fused (Thermo Scientific) and 30 nM of biotinylated SRC1 peptide ([…]) in the presence of 20 μg/mL donor and acceptor beads and in buffer containing 50 mM Tris-HCl (pH7.4), 20 mM KCl, 1 mM DTT, and 0.1% BSA. For PPARα assay, a buffer containing 50 mM MOPS, 50 mM NaF, 0.05 mM CHAPS, and 0.05% BSA (pH = 7.4) was used, and 20 nM PPARα LBD GST fused (Thermo Scientific) and 60 nM of biotinylated SRC1 peptide were employed. Both acceptor and donor beads were added to reach 20 μg/mL final concentration. Incubations were performed in a final volume of 25 μL employing 384 wells Optiplate and Alpha signal was measured with Envision 2,105 (Perkin Elmer) multimode plate reader. […]
(In general: In Alpha technology, singlet oxygen from a donor bead excites a nearby acceptor bead.)

Structures are written as SMILES. Where “and” joins values, the source holds several entries; their conditions need not be identical. Equal values may be shown once.

Usually microsomal CLint stands for the rate of metabolic loss divided by the concentration. Low readings indicate greater metabolic stability, high ones faster metabolism. For `CC[C@@H]1C2C[C@H](O)CC[C@]2(C)C2CC[C@@]3(C)C(CC[C@@H]3[C@H](C)CCOC(=O)C(C)(C)Oc3ccc(Cl)cc3)C2[C@@H]1O` (stereo partly shown) [Compound 1], the microsomal CLint at 1 µM in series [1] turned out to be 87 µL/min/mg. The half-life at 1 µM in series [1] (read-out: t1/2 in human microsomes) is 0.45 h. Besides, the half-life in series [2] turned out to be 2.02 h. Further, the “Expression of markers of adipocyte differentiation (Adiponectin, Pparγ, Cebp)” value in series [3] is listed as “reduction in the expression of all markers of adipocyte differentiation”. For the same compound, in series [4], the “Cell permeation (amount in cell pellets) compared to BAR502” value was “higher cell permeation” and the “Hydrolysis to clofibric acid in cells compared with clofibrate” value is given as “hydrolyzed more slowly”. In addition, the “Chemical stability in HCl buffer” value in series [5] (HCl buffer, 2h) was “stable”. The “Chemical stability in PBS buffer” value in series [5] (PBS buffer pH 7.4, 8 h) is “stable”. In addition, the “Chemical stability in culture medium” value in series [5] (culture medium (EMEM), 8 h) is recorded as “stable”.

For the compound `CC[C@H]1[C@@H](O)[C@@H]2[C@H](CC[C@]3(C)[C@@H]([C@H](C)CCO)CC[C@@H]23)[C@@]2(C)CC[C@@H](O)C[C@@H]12` [BAR502, 6α-ethyl-3α,7α-dihydroxy-24-nor-5β-cholan-23-ol], the “PPARα efficacy (% vs. fenofibrate)” value in series [6] was 36% and 36 ± 12%.

(Values after article PMC11289669, “BAR502/fibrate conjugates: synthesis, biological evaluation and metabolic profile” (Frontiers in Chemistry, 2024).)
